Consider 44 compounds from patent US12012467B2, “Small molecule DCN1 inhibitors and therapeutic methods using the same” (THE REGENTS OF THE UNIVERSITY OF MICHIGAN, priority 2017, dated 2024).

Counter-ions that a name gives are not always drawn. Square brackets hold non-standard residues; d marks the D form. Peptide text beside a SMILES is read from it. * marks the point of attachment. Ala(6-iPr-benzothiazol-2-yl) = CC(C)c1ccc2nc(C[C@H](N)C(=O)O)sc2c1; Ala(benzothiazol-2-yl) = N[C@@H](Cc1nc2ccccc2s1)C(=O)O; 2Nal = N[C@@H](Cc1ccc2ccccc2c1)C(=O)O; Propionyl = CCC(=O)*; Tfa = O=C(C(F)(F)F)*; For = O=C*

Sequence of DCN1 (Q96GG9 58-259): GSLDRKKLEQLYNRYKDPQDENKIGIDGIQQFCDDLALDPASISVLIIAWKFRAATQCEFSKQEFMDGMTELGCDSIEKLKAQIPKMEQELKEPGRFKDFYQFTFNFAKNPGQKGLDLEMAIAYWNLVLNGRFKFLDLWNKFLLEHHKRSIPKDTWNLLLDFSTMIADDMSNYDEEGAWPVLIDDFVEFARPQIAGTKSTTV

The first assay addresses DCN1 (Homo sapiens (Human), UniProt Q96GG9). Briefly: Competitive FP binding assay.
Settings: not given
As for the experimental part:
Competitive FP Binding Assay
The Fluorescence Polarization (FP) competitive binding assays were performed to accurately determine the binding affinities of our DCN1 inhibitors. […] Serial dilutions of proteins were mixed with 46 to a final volume of 200 μl in the assay buffer (100 mM phosphate buffer, pH=6.5, with 0.02% Tween-20 and 2% DMSO). Final probe concentration was 5 nM for both assays. Plates were incubated at room temperature for 30 minutes with gentle shaking to assure equilibrium.
Pure proteins were derived from the same expression and purification protocols. Plasmids were transformed into Rosetta2 cells, the cells were grown in Terrific Broth at 37° C. to an O.D.600>1.0 and induced with 0.4 mM Isopropyl (3-D-1-thiogalactopyranoside overnight at 20° C. The pelleted cells were resuspended in lysis buffer containing 25 mM Tris-HCl, pH 7.5, 200 mM NaCl and protease inhibitors, sonicated and centrifuged at 34,000×g for 45 minutes to remove debris. Cleared lysate was incubated with Ni-NTA resin (Qiagen) prewashed with lysis buffer, for 1 hr at 4° C. The matrix was loaded into a column then washed with 25 mM Tris-HCl, pH 7.5, 200 mM NaCl and 10 mM imidazole. Protein was eluted with 25 mM Tris-HCl, pH 7.5, 200 mM NaCl and 300 mM imidazole, concentrated and applied to a Superdex 75 (GE Healthcare) column pre-equilibrated with 25 mM Tris pH 7.5, 200 mM NaCl and 1 mM DTT. For DCN2-5, the N-terminal His6 tag was removed prior to gel filtration. Tag removal was achieved through incubation with TEV protease during overnight dialysis against 25 mM Tris pH 7.5, 200 mM NaCl and 1 mM DTT and a second Ni-NTA column. DCN2-5 proteins were stored at −80° C. in 1 mg/mL fractions containing 5% glycerol. The uncleaved DCN1 protein was stored at −80° C. without glycerol.
As for `CC[C@H](C)[C@H](NC(=O)[C@H](Cc1ccc2ccccc2c1)NC(=O)C(F)(F)F)C(=O)N[C@@H](CCCCN)C(=O)N[C@@H](CC(C)C)C(N)=O` [Example 137] (Tfa-[2Nal]IKL-NH2), the “Binding affinity to DCN1 (IC50 (nM))” value is on record as “precipitation”.

The assay is the same for the next values; noted with them: bounds given in μM; read-out: Binding affinity to DCN1 (IC50).
Regarding `CCC(=O)N[C@@H](Cc1nc(C)n(-c2ccccc2)n1)C(=O)N[C@H](CN)Cc1ccccc1` [DI-532], the IC50 is more than 10 µM.
Same read-out and setting: as for `CC[C@H](C)[C@H](NC(=O)[C@H](Cc1ccc2ccccc2c1)NC=O)C(=O)N[C@@H](CCCCN)C(=O)N[C@@H](CC(C)C)C(N)=O` [Example 143] (For-[2Nal]IKL-NH2), the figure is more than 10 µM; as for `CCC(=O)N[C@@H](Cc1ccc2ccccc2c1)C(=O)N[C@H](C(=O)N[C@@H](CN(C)C)C(=O)NC(c1ccc(F)cc1)c1ccc(F)cc1)C1CCCC1` [Example 139], more than 10 µM.
For `CCC(=O)N[C@@H](Cc1nc(C)c(-c2cccnc2)s1)C(=O)N[C@H](CN)Cc1ccccc1` [Example 229], the IC50 is more than 10 µM.
The same measure, in the same setting: for `CC(C)CC(C)C(=O)N[C@@H](Cc1nc2ccc(C(C)C)cc2s1)C(=O)NCCN` (some centres unmarked) [97 & 98] the value was more than 10 µM.
`CCC(=O)N[C@@H](Cc1nc2c(F)cccc2s1)C(=O)N[C@H](C(=O)N[C@@H](CCCCN)C(=O)NC(c1ccccc1)c1ccccc1)C1CCCC1` [Example 26]: the IC50 is more than 3 µM.
Regarding `CCC(=O)N[C@@H](Cc1ccc2ccccc2c1)C(=O)N[C@H](C(=O)N[C@@H](CCCCN)C(=O)N[C@@H](CN)c1ccccc1)C1CCCC1` [Example 151], the IC50 is more than 10 µM.
On to `CCC(=O)N[C@@H](Cc1nc2ccc(Cl)cc2s1)C(=O)N[C@@H](C)CN` [Example 220], for which the IC50 was more than 10 µM.

The assay is the same for the next values; noted with them: read-out: Binding affinity to DCN1 (IC50 (nM)).
For the compound `CCC(=O)N[C@@H](Cc1nc2ccc(C(C)C)cc2s1)C(=O)N[C@H](C(=O)N[C@@H](CCCCN)C(=O)N[C@@H](CC(C)C)C(N)=O)C(C)C` [Example 282] (Propionyl-[Ala(6-iPr-benzothiazol-2-yl)]VKL-NH2), the IC50 came out at 0.072 µM.
As for `CCC(=O)N[C@@H](Cc1nc2ccc(Cl)cc2s1)C(=O)N[C@@H](C[C@H]1CC[C@H](CNC(=O)COCCOCCOCCNC(=O)CCCC[C@@H]2SC[C@@H]3NC(=O)N[C@@H]32)CC1)C(=O)N[C@@H](CCCCN(C)C)C(=O)N[C@@H]1CCOc2ccccc21` [DI-427biotin], the IC50 is 0.189 µM.
Same read-out and setting: for `CCC(=O)N[C@@H](Cc1nc2ccc(Cl)cc2s1)C(=O)N[C@H](C(=O)N[C@@H](CCCCN)C(=O)NCc1cccnc1)C1CCOCC1` [Example 242] the value was 1.2 µM; for `CCC(=O)N[C@@H](Cc1nc2ccc(Cl)cc2s1)C(=O)N[C@H](C(=O)N[C@@H](CCCCN(C)C)C(=O)N[C@@H]1CCOc2ccccc21)C1CCOCC1` [Example 38], 0.123 µM.
Turning to `CCC(=O)N[C@@H](Cc1nc2ccc(CC)cc2s1)C(=O)N[C@H](CN)[C@@H](C)CC` [Example 215], the 50% inhibitory concentration (IC50) turned out to be 0.23 µM.
Same read-out and setting: as for `CCC(=O)N[C@H](CNC(=O)C1(N)CCCCC1)Cc1nc2ccc(Cl)cc2s1` [Example 119], the figure is 0.477 µM; as for `CCC(=O)N[C@H](CNC(=O)C1(N)CCOCC1)Cc1nc2ccc(C(C)C)cc2s1` [Example 112], 5.06 µM; as for `CCC(=O)N[C@H](CNC(=O)C1CCCCC1)Cc1nc2ccc(Cl)cc2s1` [Example 254], 1.34 µM.
For `CCC(=O)N[C@@H](Cc1nc2ccc(Cl)cc2s1)C(=O)N[C@H](C(=O)N[C@@H](CCCCN)C(=O)N[C@@H]1CNCc2ccccc21)C1CCCC1` [Example 39], the IC50 is 0.173 µM.
For the compound `CCC(=O)N[C@@H](Cc1nc2ccc(Cl)cc2s1)C(=O)N[C@H](C(=O)N[C@@H](CCCCN(C)C)C(=O)N[C@@H]1CN(C)Cc2ccccc21)C1CCCC1` [Example 40], the IC50 was determined as 0.163 µM.
For `CC[C@H](C)[C@H](NC(=O)[C@H](Cc1nc2ccccc2s1)NC(C)=O)C(=O)N[C@@H](CCCCN)C(=O)N[C@@H](CC(C)C)C(N)=O` [Example 2, (S)-2-((2S,3 S)-2-((S)-2-acetamido-3-(benzo[d]thiazol-2-yl)propanamido)-3-methylpentanamido)-6-amino-N—((S)-1-amino-4-methyl-1-oxopentan-2-yl)hexanamide] (Ac-[Ala(benzothiazol-2-yl)]IKL-NH2), the IC50 was 0.322 µM.
Still for that read-out and setting: for `CCC(=O)N[C@@H](Cc1nc2ccc(C(C)C)cc2s1)C(=O)N[C@H](CNC(=O)C1CCN(CCF)CC1)C1CCCCC1` [Example 74] the value was 0.112 µM.
Same read-out and setting: for `CC[C@H](C)[C@H](NC(=O)[C@H](Cc1nc2ccc(C(C)C)cc2s1)NC=O)C(=O)N[C@@H](CCCCN)C(=O)N[C@@H](CC(C)C)C(N)=O` [Example 271] (For-[Ala(6-iPr-benzothiazol-2-yl)]IKL-NH2) the value was 0.122 µM; for `CCC(=O)N[C@@H](Cc1nc(C)c(-c2ccccc2)s1)C(=O)N[C@H](CN)Cc1ccccc1` [Example 101], 1.74 µM.
`CCC(=O)N[C@@H](Cc1cc2ccccc2cn1)C(=O)N[C@H](C(=O)N[C@@H](CCCCN)C(=O)NC(c1ccccc1)c1ccccc1)[C@@H](C)CC` [Example 131]: the IC50 was 2.61 µM.
Still for that read-out and setting: for `CCC(=O)N[C@H](CNC(=O)C1(CN)CCCCC1)Cc1nc2ccc(C(C)C)cc2s1` [Example 117] the value was 0.875 µM; for `CCC(=O)N[C@@H](Cc1nc2ccccc2s1)C(=O)N[C@H](C(=O)N[C@@H](CCCCN)C(=O)NC(c1ccccc1)c1ccccc1)C1CCCC1` [Example 25], 0.397 µM.
With `CCC(=O)N[C@@H](Cc1nc(C)c(-c2cccc(Br)c2)s1)C(=O)N[C@H](CN)Cc1ccccc1` [Example 232], the half-maximal inhibitory concentration (IC50) was 0.984 µM.
Turning to `CCC(=O)N[C@@H](Cc1ccc2ccccc2c1)C(=O)N[C@H](C(=O)N[C@@H](CCCCN)C(=O)N[C@H]1CCCc2ccccc21)[C@@H](C)CC` [Example 16], the 50% inhibitory concentration (IC50) was 0.795 µM.
Still for that read-out and setting: as for `CCC(=O)N[C@@H](Cc1nc2ccc(C(C)C)cc2s1)C(=O)N[C@H](CNC(=O)C1CCN(C(C)C)CC1)C1CCCCC1` [Example 71], the figure is 0.11 µM; as for `CCC(=O)N[C@H](CNC(=O)C1(N)CCCC1)Cc1nc2ccc(C(C)C)cc2s1` [Example 114], 1.55 µM; as for `CCC(=O)N[C@@H](Cc1nc2ccc(C(C)C)cc2s1)C(=O)N[C@@H](Cc1ccccc1)C(=O)N[C@@H](CCCCN)C(=O)N[C@@H](CC(C)C)C(N)=O` [Example 290] (Propionyl-[Ala(6-iPr-benzothiazol-2-yl)]FKL-NH2), 0.0556 µM.
Same read-out and setting: as for `CNC(=O)N[C@@H](Cc1nc2ccc(Cl)cc2s1)C(=O)N[C@H](C(=O)N[C@@H](CCCCN)C(=O)N[C@@H]1CCOc2ccccc21)C1CCOCC1` [Example 209], the figure is 0.278 µM.
Consider `CCC(=O)N[C@@H](Cc1nc2ccc(Cl)cc2s1)C(=O)N[C@H](C(=O)N[C@@H](CCCCN)C(=O)NC(c1ccc(F)cc1)c1ccc(F)cc1)C1CCCC1` [Example 158], for which the IC50 was found to be 0.307 µM.
As for `CCC(=O)N[C@@H](Cc1nc2ccc(C(C)C)cc2s1)C(=O)N[C@H](CNC(=O)NC1CCNCC1)C1CCCCC1` [DI-749], the IC50 was determined as 0.0529 µM.
Same read-out and setting: for `CCC(=O)N[C@@H](Cc1nc2ccc(C)cc2s1)C(=O)N[C@H](C(=O)N[C@@H](CCCCN)C(=O)N[C@@H]1CCOc2ccccc21)C(C)(C)O` [Example 182] the value was 0.375 µM; for `CCC(=O)N[C@@H](Cc1nc2ccc(Cl)cc2s1)C(=O)N[C@H](CNC(=O)[C@H](C)CN1CCOCC1)Cc1ccccc1` [Example 226], 0.611 µM; for `CCC(=O)N[C@@H](Cc1nc2cc(F)ccc2s1)C(=O)N[C@H](C(=O)N[C@@H](CCCCN)C(=O)NC(c1ccccc1)c1ccccc1)C1CCCC1` [Example 27], 1.2 µM.
As for `CCC(=O)N[C@@H](Cc1nc2ccc(C)cc2s1)C(=O)N[C@@H](C[C@H]1CC[C@H](CN)CC1)C(=O)N[C@@H](CCCCN)C(=O)N[C@@H]1CCOc2ccccc21` [Example 185], the IC50 amounted to 0.111 µM.
On the same count and under the same terms, as for `CCC(=O)N[C@@H](Cc1nc2ccc(C)cc2s1)C(=O)N[C@H](CN)[C@@H](C)CC` [Example 214], the figure is 0.491 µM; as for `CCC(=O)N[C@@H](Cc1nc2ccc(C(C)C)cc2s1)C(=O)N[C@H](CNS(=O)(=O)C1CCN(C)CC1)C1CCCCC1` [Example 76], 0.0657 µM; as for `CCC(=O)N[C@@H](Cc1nc2ccc(Cl)c(Cl)c2s1)C(=O)N[C@H](CN)Cc1ccccc1` [Example 221], 0.294 µM.
In the case of `CCC(=O)N[C@@H](Cc1nc2ccc(Cl)cc2s1)C(=O)N[C@@H](C[C@H]1CC[C@H](CN)CC1)C(=O)N[C@@H](CCCCN(C)C)C(=O)N[C@@H]1CCOc2ccccc21` [Example 45], the IC50 turned out to be 0.116 µM.
Still for that read-out and setting: as for `CCC(=O)N[C@@H](Cc1nc2ccc(C)cc2s1)C(=O)N[C@@H](Cc1ccccn1)C(=O)N[C@@H](CCCCN)C(=O)N[C@@H]1CCOc2ccccc21` [Example 179], the figure is 0.133 µM; as for `CCC(=O)N[C@@H](Cc1nc2ccc(C(C)C)cc2s1)C(=O)N[C@H](Cn1cc(CO)nn1)C1CCCCC1` [Example 83], 0.656 µM.

Usually IC50 stands for the concentration that gives 50% inhibition.
